From the NIST ThermoML archive (doi:10.1021/acs.jced.5b00366)

Key:
[1] = 102 kPa, Liquid, Vibrating tube method
[2] = xn = mol fraction of the nth substance listed; conditions: 102 kPa, Liquid, Vibrating tube method
[3] = mn = molality of the nth substance listed, in mol/kg; conditions: 102 kPa, Liquid, Vibrating tube method

CCCCO [butan-1-ol]
[1]
Conditions | mass density [kg/m3]
293.15 K | 809.84
298.15 K | 806.03
303.15 K | 802.19
308.15 K | 798.38

CCCCO [butan-1-ol] + CO
mass density [kg/m3], [2]
Conditions | 293.15 K | 298.15 K | 303.15 K | 308.15 K
x1 = 0.05 | 793 | 788.48 | 783.92 | 779.32
x1 = 0.1 | 794.55 | 790.15 | 785.69 | 781.19
x1 = 0.15 | 795.82 | 791.52 | 787.15 | 782.74
x1 = 0.2 | 797.09 | 792.81 | 788.52 | 784.19
x1 = 0.25 | 798.29 | 794.06 | 789.82 | 785.52
x1 = 0.3 | 799.4 | 795.23 | 791.01 | 786.78
x1 = 0.4 | 801.48 | 797.4 | 793.26 | 789.13
x1 = 0.5 | 803.28 | 799.27 | 795.21 | 791.18
x1 = 0.6 | 804.87 | 800.94 | 796.94 | 792.99
x1 = 0.7 | 806.38 | 802.48 | 798.57 | 794.64
x1 = 0.8 | 807.62 | 803.77 | 799.91 | 796.04
x1 = 0.9 | 808.83 | 804.99 | 801.12 | 797.29
x1 = 1 | 809.84 | 806.03 | 802.19 | 798.38

[Cd+2].[I-].[I-] [cadmium iodide (CdI2)] + CCCCO
mass density [kg/m3], [3]
Conditions | m1 = 0.004 | m1 = 0.005 | m1 = 0.006 | m1 = 0.008 | m1 = 0.01 | m1 = 0.02 | m1 = 0.05 | m1 = 0.08
293.15 K | 811.57 | 811.75 | 811.98 | 812.48 | 813.03 | 815.24 | 822.26 | 830.17
298.15 K | 807.62 | 807.92 | 808.19 | 808.94 | 809.67 | 811.39 | 819.27 | 826.26
303.15 K | 803.74 | 804.06 | 804.49 | 805.19 | 805.87 | 807.51 | 814.48 | 822.32
308.15 K | 799.64 | 800.2 | 800.59 | 801.3 | 802.1 | 803.62 | 810.6 | 818.39

[Cd+2].[I-].[I-] [cadmium iodide (CdI2)] + CO
mass density [kg/m3], [3]
Conditions | m1 = 0.004 | m1 = 0.005 | m1 = 0.006 | m1 = 0.008 | m1 = 0.01 | m1 = 0.02 | m1 = 0.05 | m1 = 0.08
293.15 K | 792.58 | 792.87 | 793.02 | 793.63 | 794.17 | 797.09 | 805.07 | 811.5
298.15 K | 787.92 | 788.22 | 788.45 | 789.1 | 789.72 | 792.37 | 800.28 | 806.75
303.15 K | 783.18 | 783.49 | 783.71 | 784.31 | 784.72 | 787.65 | 795.4 | 801.87
308.15 K | 778.43 | 778.74 | 778.86 | 779.43 | 780.04 | 782.94 | 790.79 | 797.4

CO [methanol]
[1]
Conditions | mass density [kg/m3]
293.15 K | 791.34
298.15 K | 786.68
303.15 K | 781.96
308.15 K | 777.21

CO [methanol] + CCCCO
[2], x2 = 0
Conditions | mass density [kg/m3]
293.15 K | 791.34
298.15 K | 786.68
303.15 K | 781.96
308.15 K | 777.21
